The text below walks through data of patent US9314510B2, “Human laminin α2 chain LG3 domain and active peptides promoting cell adhesion, spreading, migration, and neurite outgrowth” (SNU R&DB Foundation, priority 2011, dated 2016).

Ends that are not written are not given here.

In one experiment the test system is Schwann cells. The experiment in a line: Schwann cell adhesion on coated plates. Conditions: plates coated with 62.5 μg/mL peptide, 1 h, serum-free. The format is cell-based, human.
For experiment [1], the system named is normal human epidermal keratinocytes (NHEK). Kind of experiment: Cell adhesion to Ln2-LG3-P2-coated plates, NHEK. The experiment is classed as cell-based. Conditions: NHEK at passage 2, 62.5 μg/mL, 1 h. The procedure:
Normal human epidermal keratinocytes (NHEK) isolated from epidermal tissue of normal human epidermal skin were cultured in keratinocyte growth medium (KGM, manufactured by Clonetics, San Diego, Calif.). Cells at passage 2 were used for the following experiments.

In experiment [2] the test system is normal human oral keratinocytes (NHOK). The experiment in a line: Cell adhesion to Ln2-LG3-P2-coated plates, NHOK. The format is cell-based. Conditions: NHOK at passage 2, 62.5 μg/mL, 1 h. The procedure:
Normal human oral keratinocytes (NHOK) isolated from epidermal tissue of human gingiva were cultured in KGM (by Clonetics, San Diego, Calif.). Cells at passage 2 were used for the following experiments.

The subject of experiment [3] is normal human dermal fibroblasts (NHDF). The experiment in a line: Cell adhesion to Ln2-LG3-P2-coated plates, NHDF. The experiment is classed as cell-based. The note with it: NHDF at passage 4, 62.5 μg/mL, 1 h. The procedure:
Normal human dermal fibroblasts (NHDF) isolated from hypodermal tissue of normal human skin were cultured in DMEM containing antibiotics and 10% FBS. Cells at passage 4 were used for the following experiments.

Another experiment relates to CV-1 cells. Kind of experiment: Cell adhesion to Ln2-LG3-P2-coated plates, CV-1. The format is cell-based, African green monkey. Conditions: 62.5 μg/mL, 1 h. From the text: The normal African green monkey kidney fibroblast cell line CV-1 was purchased from the American Type Culture Collection (Manassas, Va.) and cultured in DMEM containing 10% FBS.
The test system of a further experiment is NIH/3T3 cells. Kind of experiment: Cell adhesion to Ln2-LG3-P2-coated plates, NIH/3T3. The format is cell-based, mouse. The note with it: 62.5 μg/mL, 1 h. The source says: The mouse embryo fibroblast cell line NIH/3T3 was purchased from the American Type Culture Collection (Manassas, Va.) and cultured in Dulbecco's modified Eagle's medium (DMEM) containing 10% FBS.

For experiment [4], the system named is PC12 cells. Kind of experiment: Inhibition of cell spreading on rLG3 by peptide pretreatment. The format is cell-based, rat. The note with it: PC12 cells pretreated with 500 μg/mL peptide, rLG3 25 μg/mL, 3 h. The procedure:
PC12 cells were pretreated with 500 μg/mL of Ln2-LG3-P1, Ln2-LG3-P2, Ln2-LG3-P3, Ln2-LG3-P4, Ln2-LG3-P5 and SP (scramble peptide) (SEQ ID NO:20) for 10 min at room temperature and then cultured on plates coated with rLG3 (25 μg/mL) in serum-free medium. To observe cell adhesion, PC12 cells were incubated on the coated plates for 1 h and to observe cell spreading, PC12 cells were incubated on the coated plates for 3 h. To observe cell migration, cells were seed into the upper chamber of transwell filters coated with rLG3 (25 μg/mL) and cultured for 24 h. Cell migration was quantified by counting the number of cells that had migrated through the filter.

For experiment [5], the system named is PC12 cells. The experiment in a line: Inhibition of cell adhesion to laminin by rLG3 / rLG3-M1 pretreatment. The note with it: laminin 5 μg/mL. The experiment is classed as cell-based, rat. The procedure:
In addition, PC12 cells were pretreated with rLG3 (250 or 500 μg/mL) or vehicle (phosphate buffer, pH 3.0) for 30 min and then seeded on plates coated with laminin (5 μg/mL) for 30 min in serum-free medium and cell adhesion was observed.

On to “RNIPPFEGCIWN (RNIPPFEGCIWN-NH2; listed as Homo sapiens) [Ln2-LG3-P2, 12-mer peptide, position 2675 to 2686 in human laminin α2 chain]”, for which the Schwann cell adhesion entry in the experiment with Schwann cells is “strong effect”. For the same molecule, the cell adhesion activity entry (in experiment [1]; in experiment [2]; in experiment [3]; in the experiment with CV-1 cells; in the experiment on NIH/3T3 cells) was “strong cell adhesion activity” in each case. Besides, in the experiment with PC12 cells [4], the “inhibition of cell spreading to rLG3 protein” value was “inhibited cell spreading and migration”.

B1: rLG3: recombinant His6-tagged human laminin α2 chain LG3 domain, amino acids 2537 to 2745 (protein, listed as Homo sapiens)
chain: VELSPVPIDVGTEINLSFSTKNESGIILLGSGGTPAPPRRKRRQTGQAYYVILLNRGRLEVHLSTGARTMRKIVIRPEPNLFHDGREHSVHVERTRGIFTVQVDENRRYMQNLTVEQPIEVKKLFVGGAPPEFQPSPLRNIPPFEGCIWNLVINSVPMDFARPVSFKNADIGRCAHQKLREDEDGAAPAEIVIQPEPVPTPAFPTPTPV
modifications: His6 tag
Turning to B1, the “inhibition of cell adhesion to laminin” value came out at 23% in the experiment with PC12 cells [5] (PC12 cells pretreated with 250 μg/mL for 30 min) and 48% in the experiment with PC12 cells [5] (PC12 cells pretreated with 500 μg/mL for 30 min).
